In ChEMBL document CHEMBL1201862, “PubChem BioAssay data set” (2004):
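How tested: cells in 96-well plates exposed to compound for 48 hours at five concentrations. GI50 is the concentration that inhibits growth by half.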 Calls of active or inactive are those of the source. No stated cut-off is given here; in the data, active = GI50 up to about 1.1 µM and inactive = higher.

Columns and labels:
Assay in all cases: NCI-60 cell line screen, 48 h
SNB-78 = system: SNB-78
SF-539 = system: SF-539
SF-268 = system: SF-268
ACHN = system: ACHN
SF-295 = system: SF-295
SK-MEL-28 = system: SK-MEL-28
SN12C = system: SN12C
TK-10 = system: TK-10
DLD-1 = system: DLD-1
M14 = system: M14
SK-MEL-5 = system: SK-MEL-5
IGROV-1 = system: IGROV-1
DMS-114 = system: DMS-114
OVCAR-4 = system: OVCAR-4
SW-620 = system: SW-620
LOX IMVI = system: LOX IMVI
MOLT-4 = system: MOLT-4
UACC-257 = system: UACC-257
UO-31 = system: UO-31
A498 = system: A498
COLO 205 = system: COLO 205
U-251 = system: U-251
RPMI-8226 = system: RPMI-8226
Malme-3M = system: Malme-3M
SNB-75 = system: SNB-75
NCI-H23 = system: NCI-H23
UACC-62 = system: UACC-62
K562 = system: K562
OVCAR-8 = system: OVCAR-8
CAKI-1 = system: CAKI-1
OVCAR-3 = system: OVCAR-3
NCI-H522 = system: NCI-H522
HOP-18 = system: HOP-18
NCI-H460 = system: NCI-H460
EKVX = system: EKVX
KM-20L2 = system: KM-20L2
SK-MEL-2 = system: SK-MEL-2
DMS-273 = system: DMS-273
M19-MEL = system: M19-MEL
KM12 = system: KM12
XF498 = system: XF498
HOP-92 = system: HOP-92
RXF 393 = system: RXF 393
HCT-15 = system: HCT-15
HCT-116 = system: HCT-116
CCRF-CEM = system: CCRF-CEM
NCI-H226 = system: NCI-H226
A549 = system: A549
LXFL 529 = system: LXFL 529
SR = system: SR
SK-OV-3 = system: SK-OV-3
HCC 2998 = system: HCC 2998
SNB-19 = system: SNB-19
786-0 = system: 786-0
HT-29 = system: HT-29
HL-60 = system: HL-60
OVCAR-5 = system: OVCAR-5
HOP-62 = system: HOP-62

Q: How did the GI50 (SNB-78) turn out when `O=C1C2C3C=CC(C2C(=O)N1COP(=O)(O)O)C1C2C(=O)N(COP(=O)(O)O)C(=O)C2C31` (stereo not given) was run?
A: > 100 µM (inactive)

Q: And the GI50 (SF-539)?
A: > 100 µM (inactive)

Q: What about the GI50 (SF-268) of the same compound?
A: > 67.5 µM (inactive)

Q: And the GI50 (ACHN)?
A: > 91.2 µM (inactive)

Q: What about the GI50 (SF-295) of the same compound?
A: > 100 µM (inactive)

Q: And the GI50 (SK-MEL-28)?
A: > 100 µM (inactive)

Q: And the GI50 (SN12C)?
A: > 74.3 µM (inactive)

Q: What about the GI50 (TK-10) of the same compound?
A: > 100 µM (inactive)

Q: What about the GI50 (DLD-1) of the same compound?
A: > 49.2 µM (inactive)

Q: What about the GI50 (M14) of the same compound?
A: > 100 µM (inactive)

Q: And the GI50 (SK-MEL-5)?
A: > 100 µM (inactive)

Q: What about the GI50 (IGROV-1) of the same compound?
A: > 100 µM (inactive)

Q: What about the GI50 (DMS-114) of the same compound?
A: > 41.7 µM (inactive)

Q: And the GI50 (OVCAR-4)?
A: > 100 µM (inactive)

Q: What about the GI50 (SW-620) of the same compound?
A: > 45.7 µM (inactive)

Q: What about the GI50 (LOX IMVI) of the same compound?
A: > 43.4 µM (inactive)

Q: What about the GI50 (MOLT-4) of the same compound?
A: > 100 µM (inactive)

Q: And the GI50 (UACC-257)?
A: > 100 µM (inactive)

Q: And the GI50 (UO-31)?
A: > 100 µM (inactive)

Q: What about the GI50 (A498) of the same compound?
A: > 100 µM (inactive)

Q: What about the GI50 (COLO 205) of the same compound?
A: > 47.5 µM (inactive)

Q: And the GI50 (U-251)?
A: > 70.5 µM (inactive)

Q: What about the GI50 (RPMI-8226) of the same compound?
A: > 46.1 µM (inactive)

Q: What about the GI50 (Malme-3M) of the same compound?
A: > 100 µM (inactive)

Q: What about the GI50 (SNB-75) of the same compound?
A: > 100 µM (inactive)

Q: What about the GI50 (NCI-H23) of the same compound?
A: > 100 µM (inactive)

Q: What about the GI50 (UACC-62) of the same compound?
A: > 100 µM (inactive)

Q: What about the GI50 (K562) of the same compound?
A: > 67 µM (inactive)

Q: What about the GI50 (OVCAR-8) of the same compound?
A: > 100 µM (inactive)

Q: What about the GI50 (CAKI-1) of the same compound?
A: > 100 µM (inactive)

Q: What about the GI50 (OVCAR-3) of the same compound?
A: > 100 µM (inactive)

Q: And the GI50 (NCI-H522)?
A: > 100 µM (inactive)

Q: And the GI50 (HOP-18)?
A: > 100 µM (inactive)

Q: And the GI50 (NCI-H460)?
A: > 41.9 µM (inactive)

Q: And the GI50 (EKVX)?
A: > 100 µM (inactive)

Q: And the GI50 (KM-20L2)?
A: > 100 µM (inactive)

Q: What about the GI50 (SK-MEL-2) of the same compound?
A: > 100 µM (inactive)

Q: What about the GI50 (DMS-273) of the same compound?
A: > 41.4 µM (inactive)

Q: And the GI50 (M19-MEL)?
A: > 100 µM (inactive)

Q: And the GI50 (KM12)?
A: > 100 µM (inactive)

Q: What about the GI50 (XF498) of the same compound?
A: > 100 µM (inactive)

Q: What about the GI50 (HOP-92) of the same compound?
A: > 100 µM (inactive)

Q: What about the GI50 (RXF 393) of the same compound?
A: > 100 µM (inactive)

Q: And the GI50 (HCT-15)?
A: > 41.3 µM

Q: What about the GI50 (HCT-116) of the same compound?
A: > 42.6 µM (inactive)

Q: And the GI50 (CCRF-CEM)?
A: > 42.4 µM (inactive)

Q: What about the GI50 (NCI-H226) of the same compound?
A: > 100 µM (inactive)

Q: What about the GI50 (A549) of the same compound?
A: > 69.7 µM (inactive)

Q: What about the GI50 (LXFL 529) of the same compound?
A: > 100 µM (inactive)

Q: And the GI50 (SR)?
A: 17.5 µM (inactive)

Q: And the GI50 (SK-OV-3)?
A: > 100 µM (inactive)

Q: And the GI50 (HCC 2998)?
A: > 100 µM (inactive)

Q: And the GI50 (SNB-19)?
A: > 100 µM (inactive)

Q: What about the GI50 (786-0) of the same compound?
A: > 71.6 µM (inactive)

Q: What about the GI50 (HT-29) of the same compound?
A: > 100 µM (inactive)

Q: And the GI50 (HL-60)?
A: 15.5 µM (inactive)

Q: And the GI50 (OVCAR-5)?
A: > 100 µM (inactive)

Q: And the GI50 (HOP-62)?
A: > 100 µM (inactive)

Q: How did the GI50 (SNB-78) turn out when `CC(C)C1NC(=O)[C@H](C)OC(=O)[C@@H](C(C)C)NC(=O)[C@@H](C)OC(=O)C(C(C)C)NC(=O)[C@H](C)OC1=O` (stereo not given in full) was run?
A: > 100 µM (inactive)

Q: What about the GI50 (SF-539) of the same compound?
A: > 50.9 µM (inactive)

Q: What about the GI50 (SF-268) of the same compound?
A: > 100 µM (inactive)

Q: What about the GI50 (ACHN) of the same compound?
A: > 100 µM (inactive)

Q: What about the GI50 (SF-295) of the same compound?
A: > 100 µM (inactive)

Q: What about the GI50 (SK-MEL-28) of the same compound?
A: > 100 µM (inactive)

Q: And the GI50 (SN12C)?
A: > 100 µM (inactive)

Q: And the GI50 (TK-10)?
A: > 100 µM (inactive)

Q: And the GI50 (DLD-1)?
A: > 59.6 µM (inactive)

Q: And the GI50 (M14)?
A: > 95.1 µM (inactive)

Q: And the GI50 (SK-MEL-5)?
A: > 100 µM (inactive)

Q: What about the GI50 (IGROV-1) of the same compound?
A: > 100 µM (inactive)

Q: What about the GI50 (DMS-114) of the same compound?
A: > 63.8 µM (inactive)

Q: And the GI50 (OVCAR-4)?
A: > 67.1 µM (inactive)

Q: What about the GI50 (SW-620) of the same compound?
A: > 28.1 µM (inactive)

Q: What about the GI50 (LOX IMVI) of the same compound?
A: > 49.3 µM (inactive)

Q: What about the GI50 (MOLT-4) of the same compound?
A: > 100 µM (inactive)

Q: What about the GI50 (UACC-257) of the same compound?
A: > 100 µM (inactive)

Q: And the GI50 (UO-31)?
A: > 100 µM (inactive)

Q: And the GI50 (A498)?
A: > 100 µM (inactive)

Q: And the GI50 (COLO 205)?
A: > 54.6 µM (inactive)

Q: What about the GI50 (U-251) of the same compound?
A: > 68.4 µM (inactive)

Q: And the GI50 (RPMI-8226)?
A: > 47.9 µM (inactive)

Q: What about the GI50 (Malme-3M) of the same compound?
A: > 100 µM (inactive)

Q: What about the GI50 (SNB-75) of the same compound?
A: > 100 µM (inactive)

Q: And the GI50 (NCI-H23)?
A: > 100 µM (inactive)

Q: And the GI50 (UACC-62)?
A: > 100 µM (inactive)

Q: What about the GI50 (K562) of the same compound?
A: > 41.7 µM (inactive)

Q: What about the GI50 (OVCAR-8) of the same compound?
A: > 100 µM (inactive)

Q: What about the GI50 (CAKI-1) of the same compound?
A: > 100 µM (inactive)

Q: What about the GI50 (OVCAR-3) of the same compound?
A: > 100 µM (inactive)

Q: What about the GI50 (NCI-H522) of the same compound?
A: > 100 µM (inactive)

Q: What about the GI50 (HOP-18) of the same compound?
A: > 100 µM (inactive)

Q: What about the GI50 (NCI-H460) of the same compound?
A: > 79.4 µM (inactive)

Q: And the GI50 (EKVX)?
A: > 100 µM (inactive)

Q: And the GI50 (KM-20L2)?
A: 56.4 µM (inactive)

Q: And the GI50 (SK-MEL-2)?
A: > 100 µM (inactive)

Q: What about the GI50 (DMS-273) of the same compound?
A: 59.2 µM (inactive)

Q: What about the GI50 (M19-MEL) of the same compound?
A: > 55.5 µM (inactive)

Q: And the GI50 (KM12)?
A: > 88.7 µM (inactive)

Q: And the GI50 (XF498)?
A: 94 µM (inactive)

Q: What about the GI50 (HOP-92) of the same compound?
A: > 100 µM (inactive)

Q: What about the GI50 (HCT-15) of the same compound?
A: 17.5 µM

Q: And the GI50 (HCT-116)?
A: > 86.5 µM (inactive)

Q: What about the GI50 (CCRF-CEM) of the same compound?
A: > 100 µM (inactive)

Q: What about the GI50 (NCI-H226) of the same compound?
A: > 100 µM (inactive)

Q: And the GI50 (A549)?
A: > 100 µM (inactive)

Q: And the GI50 (LXFL 529)?
A: > 66.2 µM (inactive)

Q: And the GI50 (SR)?
A: 29.8 µM (inactive)

Q: What about the GI50 (SK-OV-3) of the same compound?
A: > 100 µM (inactive)

Q: What about the GI50 (HCC 2998) of the same compound?
A: > 100 µM (inactive)

Q: What about the GI50 (SNB-19) of the same compound?
A: > 100 µM (inactive)

Q: And the GI50 (786-0)?
A: 20.9 µM (inactive)

Q: And the GI50 (HT-29)?
A: > 100 µM (inactive)

Q: And the GI50 (HL-60)?
A: > 100 µM (inactive)

Q: What about the GI50 (OVCAR-5) of the same compound?
A: > 100 µM (inactive)

Q: And the GI50 (HOP-62)?
A: > 100 µM (inactive)
